Results reported in patent publication US20120214736A1, “COMPOSITIONS AND METHODS FOR THE MODULATION OF JNK PROTEINS” (Isis Pharmaceuticals, Inc., priority 2006, published 2012).
e = 2'-O-(2-methoxyethyl) (MOE); d = 2'-deoxy (DNA)

Assays:
Assay type in all cases: cell-based
[1] = system: human JNK2 mRNA; experiment: Northern analysis, human JNK2 mRNA in Jurkat cells (electroporation, dose response); conditions: 1, 5 or 20 uM
Procedure: Jurkat cells were routinely cultured in RPMI Medium 1640 (Gibco/Life Technologies, Gaithersburg, Md.) supplemented with 20% fetal calf serum (Gibco/Life Technologies, Gaithersburg, Md.). Cells were routinely passaged by aspirating media that contained excess cells and replenishing with new media.
For electroporation, cells were diluted to 28×10^6 cells/mL and placed into 1 mm electroporation cuvettes. Electroporation is performed by treating with 1-20 μM oligonucleotide, at 160 Volts for 6 msec. The entire electroporated samples are then placed into 5 mL of 10% FBS/RPMI Medium 1640 in 100 mm plates. Plates are then left overnight at 37° C./5% CO2.
Each sample is then transferred to 15 mL conical tubes and spun down at 1200 rpm for 5 minutes followed by aspiration of the supernatant. Cells are then suspended in 5 mL PBS followed by a second centrifugation at 1200 rpm for 5 minutes followed by aspiration of the supernatant. Cells are then washed and lysed. Following the lysis step, total cellular RNA is then isolated using the RNEASY kit (Qiagen, Santa Clarita, Calif.) as described in other examples herein.
In accordance with the present invention, Jurkat cells were treated by electroporation with 1, 5 or 20 uM ISIS 101759 or the control oligonucleotide and mRNA levels of human JNK2 were quantitated by Northern analysis.

[2] = system: human JNK2 mRNA; experiment: Northern analysis, human JNK2 mRNA in HeLa cells (dose response); conditions: 10, 50 or 200 nM
Procedure: The human cervix epithelial adenocarcinoma cell line HeLa was obtained from the American Type Culture Collection (Manassas, Va.). HeLa cells were routinely cultured in Minimum essential medium (Eagle) with 2 mM L-glutamine and Earle's BSS adjusted to contain 1.5 g/L sodium bicarbonate, 0.1 mM non-essential amino acids, and 1.0 mM sodium pyruvate, 90%; fetal bovine serum, 10% at a temperature of 37° C. Cells were seeded into 100 mm dishes and incubated overnight at 37° C./5% CO2
(§1) When cells reached 70% confluency, they were treated with oligonucleotide. For cells grown in 10 cm dishes, cells were washed once with 5 ml PBS and then treated with 5 ml of OPTI-MEM-1 containing 3 ul LIPOFECTIN (Invitrogen Corporation, Carlsbad, Calif.)/100 nM oligonucleotide/ml OPTI-MEM-1. For other oligonucleotide concentrations the oligonucleotide/Lipofectin ration was held constant. […] Cells were harvested 16-24 hours after oligonucleotide treatment.
In accordance with the present invention, HeLa cells were treated with 10, 50 or 200 nM ISIS 101759 or the control oligonucleotide and mRNA levels of human JNK2 were quantitated by Northern analysis.

[3] = system: human JNK2 mRNA; experiment: Northern analysis, human JNK2 mRNA in HuVEC cells (time course); conditions: 100 nM; 0-72 hours
Procedure: The human umbilical vein endothilial cell line HuVEC was obtained from Clonetics (Clonetics Corporation Walkersville, Md.). HuVEC cells were routinely cultured in EBM (Clonetics Corporation Walkersville, Md.) supplemented with SingleQuots supplements (Clonetics Corporation, Walkersville, Md.). […] Cells were seeded into 100 mm dishes and incubated overnight at 37° C./5% CO2. (Falcon-Primaria #3872).
as §1
In accordance with the present invention, HuVEC cells were treated with 100 nM ISIS 101759 or the control oligonucleotide and mRNA levels of human JNK2 were monitored over a time-course of 0-72 hours and quantitated by Northern analysis.

## GsCsTsCsAsGsTsGsGsAsCsAsTsGsGsAsTsGsAsG (GCTCAGTGGACATGGATGAG; sugars from the 5' end e5 d10 e5, all phosphorothioate, methylation of C not given here) [ISIS 101759]
[1]
  expression of human JNK2 in Jurkat cells: capable of reducing the expression of human JNK2 in human Jurkat cells in a dose-dependent manner
[2]
  expression of human JNK2 in HeLa cells: capable of reducing the expression of human JNK2 in human HeLa cells in a dose-dependent manner
[3]
  expression of human JNK2 in HuVEC cells: capable of reducing the expression of human JNK2
